According to patent US12398107B2, “Fungicidal nitroanilino substituted pyrazoles” (FMC Corporation, priority 2018, dated 2025):

Assays:
Type in all cases: in vivo
Botrytis cinerea = experiment: Test E: tomato Botrytis, preventive spray on tomato seedlings; conditions: 50 ppm, 100 = 100% disease control, 0 = no control
Summary of the method: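 Tomato seedlings sprayed to run-off with compound (ppm) in acetone/water with 250 ppm PEG400, then inoculated next day with B. cinerea spores. Held 48 h at 20 °C in saturated atmosphere, then 3 days at 24 °C. Visual rating 0–100% disease control relative to untreated controls.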

[1] = tested on: Blumeria graminis f. sp. tritici; experiment: Test C: wheat powdery mildew, preventive spray on wheat seedlings; conditions: 50 ppm, rated after 8 days, 100 = 100% disease control, 0 = no control
Summary of the method: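 Compound dissolved in acetone (3% of final volume), then suspended in 50/50 acetone/water with 250 ppm PEG400 and sprayed to run-off on wheat seedlings. Inoculated next day with B. graminis f. sp. tritici spore dust, kept 8 days at 20° C; visual rating, 100 = full control, 0 = none, relative to controls.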

[2] = tested on: Puccinia recondita f. sp. tritici; experiment: Test B: wheat leaf rust, preventive spray on wheat seedlings; conditions: 50 ppm, 100 = 100% disease control, 0 = no control relative to controls
Summary of the method: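 Compounds in acetone/water (50/50) with 250 ppm PEG400, sprayed to run-off on wheat seedlings at stated ppm; inoculated next day with P. recondita spores. Held 24 h saturated at 20° C., then 7 days in growth chamber at 20° C.; rating 0–100 = % disease control vs controls.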

Alternaria solani = experiment: Test F: tomato early blight, preventive spray on tomato seedlings; conditions: 50 ppm, 100 = 100% disease control, 0 = no control
Summary of the method: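 Compounds in acetone/water (50/50) with 250 ppm PEG400, dosed in ppm, sprayed to run-off on tomato seedlings; next day inoculated with A. solani spores. Held 48 h saturated at 27° C, then 3 days at 20° C; visual rating 0–100% disease control relative to controls.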

Phakopsora pachyrhizi = experiment: Test D: Asian soybean rust, preventive spray on soybean seedlings; conditions: 50 ppm, 100 = 100% disease control, 0 = no control
Summary of the method: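 Soybean seedlings sprayed to run-off with compound suspension (ppm, in 50/50 acetone/water with 250 ppm PEG400), inoculated next day with P. pachyrhizi spores, held 24 h saturated at 22°C then 8 days at 22°C. Visual rating 0-100% disease control relative to controls.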

Septoria tritici = experiment: Test A: wheat leaf blotch, preventive spray on wheat seedlings; conditions: 50 ppm, 100 = 100% disease control, 0 = no control relative to controls
Summary of the method: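 Compounds were suspended in acetone/water (50/50) with 250 ppm PEG400 and sprayed to run-off on wheat seedlings. The next day the seedlings were inoculated with Septoria tritici spores, held 48 h at 24 °C in saturated humidity, then 17 days at 20 °C. Disease control was rated 0–100 relative to controls.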

Compound | Test E disease control rating (tomato Botrytis) (Botrytis cinerea) | Test C disease control rating (wheat powdery mildew) [1] | Test B disease control rating (wheat leaf rust) [2] | Test F disease control rating (tomato early blight) (Alternaria solani) | Test D disease control rating (Asian soybean rust) (Phakopsora pachyrhizi) | Test A disease control rating (wheat leaf blotch) (Septoria tritici) | pest or weed control at 50 ppm (Botrytis cinerea; Botrytis cinerea, read-out: Test E disease control rating (tomato Botrytis)) | pest or weed control at 50 ppm ([1]; Blumeria graminis, 192 h, read-out: Test C disease control rating (wheat powdery mildew)) | pest or weed control at 50 ppm ([2]; read-out: Test B disease control rating (wheat leaf rust)) | pest or weed control at 50 ppm (Alternaria solani; Alternaria solani, read-out: Test F disease control rating (tomato early blight)) | pest or weed control at 50 ppm (Phakopsora pachyrhizi; Phakopsora pachyrhizi, read-out: Test D disease control rating (Asian soybean rust)) | pest or weed control at 50 ppm (Septoria tritici; Zymoseptoria tritici, read-out: Test A disease control rating (wheat leaf blotch))
COc1ccc(-c2c(C)nn(C)c2Nc2ccccc2[N+](=O)[O-])c(Cl)c1 [Compound 140] | 100% | 31% | 86% | 93% | 0% | 99% | – | – | – | – | – | –
Cc1cccc([N+](=O)[O-])c1Nc1c(-c2ccc(Cl)cc2Cl)c(C)nn1C [Compound 144] | 0% | 35% | 68% | 0% | 69% | 100% | – | – | – | – | – | –
Cc1nn(C)c(Nc2ccc(F)cc2[N+](=O)[O-])c1-c1c(F)cccc1Cl [Compound 44] | 95% | 98% | 99% | 46% | 0% | 100% | – | – | – | – | – | –
CCc1nn(C)c(Nc2c(Cl)cc(C)cc2[N+](=O)[O-])c1-c1ccc(F)cc1F [Compound 16] | 99% | 98% | 99% | 0% | 50% | 100% | – | – | – | – | – | –
Cc1nn(C)c(Nc2c(F)cccc2[N+](=O)[O-])c1-c1c(F)cc(F)cc1Br [Compound 1, 4-(2-bromo-4,6-difluorophenyl)-N-(2-fluoro-6-nitrophenyl)-1,3-dimethyl-1H-pyrazol-5-amine] | – | – | – | – | – | – | 100% | 100% | 100% | 99% | 84% | 100%
COc1ccc(Nc2c(-c3c(F)cc(C#N)cc3F)c(C)nn2C)c([N+](=O)[O-])c1 [Compound 150] | 100% | 98% | 100% | 99% | 13% | 100% | – | – | – | – | – | –
CCc1nn(C)c(Nc2c(F)cc(F)cc2[N+](=O)[O-])c1-c1ccc(F)cc1Cl [Compound 95] | 99% | 100% | 100% | 99% | 84% | 100% | – | – | – | – | – | –
Cc1nn(C)c(Nc2c(F)cc(Cl)cc2[N+](=O)[O-])c1-c1ccc(F)cc1F [Compound 102] | 99% | 100% | 100% | 99% | 48% | 100% | – | – | – | – | – | –
Cc1ccc(Nc2c(-c3c(F)cccc3F)c(C)nn2C)c([N+](=O)[O-])c1 [Compound 105] | 73% | 86% | 74% | 0% | 0% | 99% | – | – | – | – | – | –
Cc1nn(C)c(Nc2c(F)cccc2[N+](=O)[O-])c1-c1c(Cl)cccc1Cl [Compound 53] | 98% | 98% | 100% | 98% | 0% | 100% | – | – | – | – | – | –
Cc1nn(C)c(Nc2c(Br)cccc2[N+](=O)[O-])c1-c1ccc(C#N)cc1Cl [Compound 125] | 99% | 0% | 96% | 9% | 0% | 100% | – | – | – | – | – | –
Cc1nn(C)c(Nc2c(Cl)cc(Br)cc2[N+](=O)[O-])c1-c1ccc(F)cc1F [Compound 55] | 34% | 90% | 99% | 0% | 0% | 100% | – | – | – | – | – | –
Cc1nn(C)c(Nc2ccc(F)cc2[N+](=O)[O-])c1-c1ccc(F)cc1Br [Compound 20] | 99% | 92% | 89% | 26% | 0% | 100% | – | – | – | – | – | –
Cc1nn(C)c(Nc2c(Cl)cccc2[N+](=O)[O-])c1-c1ccc(C#N)cc1Cl [Compound 123] | 100% | 81% | 97% | 66% | 0% | 100% | – | – | – | – | – | –
COc1ccc(-c2c(C)nn(C)c2Nc2c(F)cccc2[N+](=O)[O-])c(Cl)c1 [Compound 27] | 100% | 91% | 100% | 99% | 87% | 100% | – | – | – | – | – | –
Cc1nn(C)c(Nc2c(F)cc(F)cc2[N+](=O)[O-])c1-c1ccc(Cl)cc1F [Compound 13] | 68% | 97% | 99% | 89% | 19% | 100% | – | – | – | – | – | –
Cc1nn(C)c(Nc2c(Cl)cccc2[N+](=O)[O-])c1-c1c(F)cccc1Cl [Compound 38] | 88% | 95% | 99% | 0% | 0% | 100% | – | – | – | – | – | –
Cc1cc(Cl)c(Nc2c(-c3ccc(F)cc3F)c(C)nn2C)c([N+](=O)[O-])c1 [Compound 15] | 99% | 98% | 100% | 53% | 61% | 100% | – | – | – | – | – | –
COc1ccc(-c2c(C)nn(C)c2Nc2c(F)cc(Br)cc2[N+](=O)[O-])c(Cl)c1 [Compound 182] | 100% | 76% | 99% | 99% | 0% | 100% | – | – | – | – | – | –
Cc1nn(C)c(Nc2c(Cl)cc(Cl)cc2[N+](=O)[O-])c1-c1ccc(F)cc1Br [Compound 37] | 88% | 98% | 100% | 78% | 0% | 100% | – | – | – | – | – | –
CCc1nn(C)c(Nc2c(F)cc(F)cc2[N+](=O)[O-])c1-c1ccc(F)cc1F [Compound 50] | 92% | 100% | 98% | 98% | 0% | 100% | – | – | – | – | – | –
